Data on three compounds can be found in PMC10254233, “Synthesis and In Vitro Biological Evaluation of p-Carborane-Based Di-tert-butylphenol Analogs” (Molecules, 2023).

A word on the IC50: it is the concentration that inhibits the measured activity by half. Higher therefore signals weaker potency. A word on the chromatographic logD: it is lipophilicity estimated from chromatographic retention. Read a high chromatographic logD as a more lipophilic compound. As a reminder, the inhibition is the drop in the measured response relative to a control, in per cent.

For data set [1], the system named is A375 melanoma. In words: Cell viability, MTT assay, A375. Type of data set: cell-based, human. To be noted: Homo sapiens, A-375; 72 h, mean ± SD. The method, then: (§1) Five human cell lines (A375 melanoma, A549 lung adenocarcinoma, HCT116 and HT29 colorectal carcinoma, MDA-MB-231 triple-negative breast adenocarcinoma) were used to study the antitumor effects of the di-tert-butylphenols and their respective carborane analogs. All selected cell lines were derived from inflammation-associated tumors.
(§2) After the incubation period, the supernatant was discarded from the wells, and the cells were washed two times with 200 µL of PBS. Next, MTT solution at a final concentration of 0.5 mg/mL was added and incubated at 37 °C until purple formazan crystals were formed (30 min to one hour). After incubation, the dye was discarded. In order to dissolve the formed formazan crystals DMSO was added, and the absorbance was measured at λmax = 540 nm, with the reference/background wavelength of 670 nm. All results are expressed as a percentage of the control value which was arbitrary set to 100%. After 72 h treatment, cells were washed with 200 µL of PBS and fixed with 4% paraformaldehyde (PFA) for 15 min at room temperature (RT). Next, cells were stained with 1% CV solution. After 20 min, cells were washed in tap water and dried on air. Dye was dissolved in 33% acetic acid and the absorbance was measured at λmax = 540 nm, with the reference/background wavelength of 670 nm. Results were expressed as a percentage of the control value which was arbitrary set to 100%.
(§3) 1. General methods, materials, and procedures
(§4) 1.1.1. Reagents and cells
(§5) Reagents and cells were obtained from following manufacturers: Capricorn Scientific GmbH (Hessen, Germany) – Culture medium RPMI-1640, Dulbecco's Modified Eagle Medium (DMEM), and fetal bovine serum (FBS). Serva (Heidelberg, Germany) – Paraformaldehyde (PFA). Sigma (St. Louis, MO, USA) – Ethylenediaminetetraacetic acid (EDTA), Dimethyl sulfoxide (DMSO), chloroquine, CV, Triton X-100, RNase, PI, PBS, 3-MA, CFSE, and fluorescent mounting medium. AppliChem (MO, USA) –MTT. Thermo Fisher Scientific (Waltham, MA, USA) – DHR. R&D Systems (Minneapolis, MN, USA) – ApoStat. BD (Pharmingen, San Diego, SAD) – Annexin V-FITC (AnnV). Biological Industries (Cromwell, CT, USA) – Penicillin Streptomycin solution. American Type Culture Collection (ATCC, Manassas, Virginia, USA) – Human lung carcinoma (A549), human breast adenocarcinoma (MDA-MB-231), human colorectal ade-nocarcinoma (HT-29), human colorectal carcinoma (HCT116) and human melanoma (A375).
(§6) Cell lines (A375, HCT116, HT-29 and MDA-MB-231) were cultivated in HEPES-buffered RPMI-1640 medium while A549 cell line was cultivated in Dulbecco's Modified Eagle Medium (DMEM) which were previously supplemented with 10% heat-inactivated FBS, penicillin (100 units/mL), and streptomycin (100 μg/mL). All cells were kept at 37 °C in a humidified atmosphere with 5% CO2. For viability determi-nation cells were seeded at following densities in 96-well plates: 4 x 10^3 cells/well (A375, HT-29 and MDA-MB-231), 5 x 10^3 cells/well (HCT116), and 3 x 10^3 cells/well (A549). […]
(§7) Afterwards, cells were washed with phosphate-buffered saline (PBS) and stained with AnnV (15 μg/mL) and PI (15 μg/mL). […]
(§8) PBS and analyzed using flow cytometry. HCT116 cells were stained with 1 µg/mL of AO solution for 15 min at 37 °C to detect the presence of autophagic cell death. Afterwards cells were washed with PBS, resuspended and analyzed by flow cytometry (CyFlow® Space Partec using the PartecFloMax® software
For orientation: Tetrazolium dyes change colour on reduction, which living cells bring about.

Data set [2] has as its system A549 lung adenocarcinoma. Description: Cell viability, MTT assay, A549. Type of data set: cell-based, human. To be noted: Homo sapiens, A549; 72 h, mean ± SD. The method, then: as §1, §2, §3, §4, §5, §6
(§9) Afterwards, cells were washed with phosphate-buffered saline (PBS) and stained with AnnV (15 μg/mL) and PI (15 μg/mL). After 15 min incubation at room temperature (RT) protected from light the cells were resuspended in AnnV-binding buffer and analysed using flow cytom-etry. HCT116 cells were incubated with pan-caspase inhibitor Apostat for 30 min at 37 °C to determine whether detected apoptosis was mediated by caspase activation. Afterwards, cells were washed with PBS and analyzed using flow cytometry. HCT116 cells were stained with 1 µg/mL of AO solution for 15 min at 37 °C to detect the presence of autophagic cell death. Afterwards cells were washed with PBS, resuspended and analyzed by flow cytometry (CyFlow® Space Partec using the PartecFloMax® software

Data set [3] concerns HCT116 colorectal carcinoma. Description: Cell viability, MTT assay, HCT116. In kind it is cell-based, human. The note with it: Homo sapiens, HCT-116; 72 h, mean ± SD. The method, then:
as §1, §2, §3, §4, §5, §6, §7, §8

The test system of data set [4] is HT-29 colorectal carcinoma. In words: Cell viability, MTT assay, HT-29. To be noted: Homo sapiens, HT-29; 72 h, mean ± SD. In kind it is cell-based, human. The method, then: as §1, §2, §3, §4, §5, §6, §9
Data set [5] concerns MDA-MB-231 triple-negative breast adenocarcinoma. In words: Cell viability, MTT assay, MDA-MB-231. In kind it is cell-based, human. To be noted: Homo sapiens, MDA-MB-231; 72 h, mean ± SD. Here is the method: as §1, §2, §3, §4, §5, §6, §9
Data set [6] relates to A375 melanoma. In words: Cell viability, crystal violet (CV) assay, A375. To be noted: Homo sapiens, A-375; 72 h, mean ± SD. In kind it is cell-based. The method, then: as §1, §2, §3, §4
as §5, with “American Type Culture Collection (ATCC, Manassas, Virginia, USA) – Human lung carcinoma (A549), human breast adenocarcinoma (MDA-MB-231), human colorectal ade-nocarcinoma (HT-29), human colorectal carcinoma (HCT116) and human melanoma (A375).” left out
as §9, with “HCT116 cells were stained with 1 µg/mL of AO solution for 15 min at 37 °C to detect the presence of autophagic cell death.” left out

In data set [7] the test system is A549 lung adenocarcinoma. In words: Cell viability, crystal violet (CV) assay, A549. Type of data set: cell-based. To be noted: Homo sapiens, 72 h, mean ± SD. The method, then: as §1, §2, §3, §4
as §5, with “American Type Culture Collection (ATCC, Manassas, Virginia, USA) – Human lung carcinoma (A549), human breast adenocarcinoma (MDA-MB-231), human colorectal ade-nocarcinoma (HT-29), human colorectal carcinoma (HCT116) and human melanoma (A375).” left out
as §9, with “HCT116 cells were stained with 1 µg/mL of AO solution for 15 min at 37 °C to detect the presence of autophagic cell death.” left out

Data set [8] concerns HCT116 colorectal carcinoma. In words: Cell viability, crystal violet (CV) assay, HCT116. Type of data set: cell-based. The note with it: Homo sapiens, HCT-116; 72 h, mean ± SD. Here is the method: as §1, §2, §3, §4
as §5, with “American Type Culture Collection (ATCC, Manassas, Virginia, USA) – Human lung carcinoma (A549), human breast adenocarcinoma (MDA-MB-231), human colorectal ade-nocarcinoma (HT-29), human colorectal carcinoma (HCT116) and human melanoma (A375).” left out
as §9, with “HCT116 cells were stained with 1 µg/mL of AO solution for 15 min at 37 °C to detect the presence of autophagic cell death.” left out

For data set [9], the system named is HT-29 colorectal carcinoma. Description: Cell viability, crystal violet (CV) assay, HT-29. To be noted: Homo sapiens, 72 h, mean ± SD. Type of data set: cell-based. The method, then:
as §1, §2, §3, §4
as §5, with “American Type Culture Collection (ATCC, Manassas, Virginia, USA) – Human lung carcinoma (A549), human breast adenocarcinoma (MDA-MB-231), human colorectal ade-nocarcinoma (HT-29), human colorectal carcinoma (HCT116) and human melanoma (A375).” left out
as §9, with “HCT116 cells were stained with 1 µg/mL of AO solution for 15 min at 37 °C to detect the presence of autophagic cell death.” left out

The test system of data set [10] is MDA-MB-231 triple-negative breast adenocarcinoma. Description: Cell viability, crystal violet (CV) assay, MDA-MB-231. Type of data set: cell-based. To be noted: Homo sapiens, 72 h, mean ± SD. Here is the method:
as §1, §2, §3, §4
as §5, with “American Type Culture Collection (ATCC, Manassas, Virginia, USA) – Human lung carcinoma (A549), human breast adenocarcinoma (MDA-MB-231), human colorectal ade-nocarcinoma (HT-29), human colorectal carcinoma (HCT116) and human melanoma (A375).” left out
as §9, with “HCT116 cells were stained with 1 µg/mL of AO solution for 15 min at 37 °C to detect the presence of autophagic cell death.” left out

The test system of data set [11] is primary peritoneal exudate cells. Description: Viability of primary peritoneal exudate cells, CV assay. Type of data set: cell-based. To be noted: 72 h, cells from healthy mice.
Protocol: Primary peritoneal exudates cells (PEC) isolated from C57BL/6 mice were used to estimate the selec-
Mice were obtained from the animal facility at the Institute for Biological Research “Siniša Stanković” - National Institute of the Republic of Serbia, University of Belgrade (Belgrade, Serbia). PEC were cultivated in HEPES-buffered (HEPES = 4-
5% heat-inactivated fetal bovine serum (FBS) and antibiotics under standard growth conditions (37 °C, 5% CO2). For viability determination cells were seeded at a density of 2 x 10^5 cells/well in 96-well plates.
Non-adherent cells were removed two hours after seeding and treatment was applied. Cell viability was determined after 72 h using a crystal violet (CV) assay.
the indicated concentrations for 72 h. Cell viability was determined by the CV test. The data are presented as a mean ± SD from one repre-
sentative out of three independent experiments. *p<0.05 refer to untreated cultures.
Data set [12] is described as follows: physchem. To be noted: pH 7.4.
Data set [13] addresses T1, 5-LO (Homo sapiens, UniProt P09917).
T1 sequence (P09917 1-674): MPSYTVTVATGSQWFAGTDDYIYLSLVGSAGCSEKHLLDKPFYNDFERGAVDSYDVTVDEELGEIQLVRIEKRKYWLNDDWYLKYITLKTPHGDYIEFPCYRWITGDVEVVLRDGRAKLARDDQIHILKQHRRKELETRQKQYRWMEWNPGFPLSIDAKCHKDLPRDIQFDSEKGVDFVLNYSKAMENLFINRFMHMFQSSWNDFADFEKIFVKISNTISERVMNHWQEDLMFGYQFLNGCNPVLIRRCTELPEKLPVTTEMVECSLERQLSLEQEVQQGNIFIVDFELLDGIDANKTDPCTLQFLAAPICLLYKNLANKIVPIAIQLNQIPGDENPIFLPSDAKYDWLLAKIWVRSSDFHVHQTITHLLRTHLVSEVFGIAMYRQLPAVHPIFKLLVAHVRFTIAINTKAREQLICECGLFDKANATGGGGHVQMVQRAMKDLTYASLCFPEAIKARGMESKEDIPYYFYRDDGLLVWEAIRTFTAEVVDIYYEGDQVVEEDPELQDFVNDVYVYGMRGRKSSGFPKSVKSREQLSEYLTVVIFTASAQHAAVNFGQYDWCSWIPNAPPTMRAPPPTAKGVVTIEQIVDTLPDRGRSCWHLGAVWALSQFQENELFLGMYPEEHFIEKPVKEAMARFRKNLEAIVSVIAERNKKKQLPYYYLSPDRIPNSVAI
In words: 5-LO product formation in intact PMNL. To be noted: PMNL, read-out: inhibition of 5-LO product formation.
Protocol: After 10 min at 37 °C, the reaction was stopped by addition of ice-cold methanol (1 mL). HCl (30 μL, 1 M), prostaglandin B1 (200 ng) and PBS (500 μL) were added and the formed metabolites were extracted and analyzed by HPLC as described previously [96].

For data set [14] the following is noted: served as references for the HPLC method; cited from earlier work.

Regarding `CC(C)(C)c1cc(C(=O)c2cccs2)cc(C(C)(C)C)c1O` [Compound R-830, 2,6-di-tert-butyl-4-(2’-thenoyl)phenol], the IC50 was 16.7 ± 3.1 µM in data set [1]; 19 ± 0.7 µM in data set [2]; 20.6 ± 0.4 µM in data set [3]; 19.4 ± 0.4 µM in [4]; 33.3 ± 1.2 µM in data set [5]; 29.4 ± 2.3 µM in data set [6]. Further, the IC50 in data set [7] worked out at 32.6 ± 1.3 µM; in [8], 30.8 ± 3.2 µM; in data set [9] it was 24.9 ± 1.3 µM; in [10] it was 34 ± 1.6 µM. The “viability of primary peritoneal exudate cells” value in data set [11] is “diminished the viability of primary cells at 100 µM”. The chromatographic logD in [12] was 3.91.
Turning to `CC(=O)N(O)C/C=C/c1cccc(Oc2ccccc2)c1` [BWA4C, N-[(E)-3-(3-Phenoxyphenyl)prop-2-enyl]acetohydroxamic acid], the inhibition at 0.1 µM in data set [13] was found to be 92.5%.
Take `CC1=C(C(=O)Nc2ccccc2)S(=O)(=O)CCO1` [Oxycarboxin]: the “logD7.4 of HPLC references” value in data set [14] is 1.13.
